Results published in publication PMC5581453, “Combination therapy of PKCζ and COX-2 inhibitors synergistically suppress melanoma metastasis” (Journal of Experimental & Clinical Cancer Research : CR, 2017).

Biological target: T1, PKCζ (protein kinase C ζ) (Homo sapiens, UniProt Q05513)
T1 construct: gene PRKCZ
T1 sequence (Q05513 1-592): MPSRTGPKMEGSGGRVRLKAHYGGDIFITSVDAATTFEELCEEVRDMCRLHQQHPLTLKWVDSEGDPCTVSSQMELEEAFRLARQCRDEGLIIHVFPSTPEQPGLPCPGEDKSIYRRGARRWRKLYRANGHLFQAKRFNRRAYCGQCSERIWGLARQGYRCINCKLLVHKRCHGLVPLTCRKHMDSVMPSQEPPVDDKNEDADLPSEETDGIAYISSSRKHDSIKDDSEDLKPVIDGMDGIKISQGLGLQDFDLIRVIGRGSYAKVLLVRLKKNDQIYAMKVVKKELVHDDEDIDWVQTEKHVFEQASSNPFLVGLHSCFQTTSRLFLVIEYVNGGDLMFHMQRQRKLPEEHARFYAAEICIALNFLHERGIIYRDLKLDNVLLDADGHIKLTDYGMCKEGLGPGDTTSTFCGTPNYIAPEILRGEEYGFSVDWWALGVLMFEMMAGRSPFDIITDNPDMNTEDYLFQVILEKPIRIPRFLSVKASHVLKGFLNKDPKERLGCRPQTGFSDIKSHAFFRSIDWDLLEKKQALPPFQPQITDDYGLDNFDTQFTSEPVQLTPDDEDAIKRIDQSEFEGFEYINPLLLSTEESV
Experiment: Z'-LYTE kinase assay (Ser/Thr […] peptide) with purchased PKCζ (Invitrogen Cat. No. […]), […] ATP
Format: biochemical

IC50: ~10 µM
SMILES: Cc1c(CSC(=N)N)c(C)c(CSC(=N)N)c(C)c1CSC(=N)N [J-4]
